# Patent US8008279B2, “Compound—827” (AstraZeneca AB, priority 2007, dated 2011)
# Biological target: T1, rhuman cathepsin K (Homo sapiens, UniProt P43235)
# T1 sequence (P43235 115-329): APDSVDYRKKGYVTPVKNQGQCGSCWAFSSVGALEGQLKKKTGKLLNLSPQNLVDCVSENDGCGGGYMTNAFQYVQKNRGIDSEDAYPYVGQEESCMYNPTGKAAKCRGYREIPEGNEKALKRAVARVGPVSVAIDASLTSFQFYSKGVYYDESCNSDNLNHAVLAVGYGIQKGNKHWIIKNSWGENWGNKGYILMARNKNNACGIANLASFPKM
# Assay: Assay for identification of Cathepsin K inhibitors (QFRET, cleavage of Z-Phe-Arg-AMC)
# Format: biochemical
# Settings: 0.5 nM rhuman cathepsin K, Z-Phe-Arg-AMC substrate, 30 min pre-incubation, 1 h incubation at room temperature; mean of two separate occasions; read-out: CatK FRET Mean pIC50 (converted)
# Description: 0.5 nM [final] rhuman cathepsin K in phosphate buffer was added to a 384-well black microtitre plate containing investigative compounds. The enzyme and compound were pre-incubated at room temperature for 30 minutes before the addition of […] [final] Z-Phe-Arg-AMC synthetic substrate in phosphate buffer. The plates were covered and incubated for 1 h at room temperature, protected from light. Following the incubation the reaction was stopped with 7.5% [final]acetic acid. Relative fluorescence was measured using the Ultra plate reader at a wavelength of 360 nm excitation and 425 nm emission.
# Data was corrected for background fluorescence (minimum controls without enzyme).
row,Compound,IC50 [nM]
1,"N#CC1(NC(=O)[C@@H]2CCCC[C@H]2C(=O)N2CCc3[nH]c4ccc(F)cc4c3C2)CC1 [Example 1, (1R,2R)-N-(1-cyanocyclopropyl)-2-[(8-fluoro-1,3,4,5-tetrahydro-2H-pyrido[4,3-b]indol-2-yl)carbonyl]cyclohexanecarboxamide]",0.849
2,"N#CC1(NC(=O)[C@@H]2CCCC[C@H]2C(=O)N2CCc3[nH]c4ccc(Cl)cc4c3C2)CC1 [Example 2, (1R,2R)-2-[(8-chloro-1,3,4,5-tetrahydro-2H-pyrido[4,3-b]indol-2-yl)carbonyl]-N-(1-cyanocyclopropyl)cyclohexanecarboxamide]",2.99
3,"N#CC1(NC(=O)[C@@H]2CCCC[C@H]2C(=O)N2CCc3[nH]c4c(F)cccc4c3C2)CC1 [Example 3, (1R,2R)-N-(1-cyanocyclopropyl)-2-[(6-fluoro-1,3,4,5-tetrahydro-2H-pyrido[4,3-b]indol-2-yl)carbonyl]cyclohexanecarboxamide]",0.767
4,"N#CC1(NC(=O)[C@@H]2CCCC[C@H]2C(=O)N2CCc3[nH]c4ccccc4c3C2)CC1 [Example 4, (1R,2R)-N-(1-cyanocyclopropyl)-2-(1,3,4,5-tetrahydro-2H-pyrido[4,3-b]indol-2-ylcarbonyl)cyclohexanecarboxamide]",1.3
5,"N#CC1(NC(=O)[C@@H]2CCCC[C@H]2C(=O)N2CCc3[nH]c4ccc(Br)cc4c3C2)CC1 [Example 5, (1R,2R)-2-[(8-bromo-1,3,4,5-tetrahydro-2H-pyrido[4,3-b]indol-2-yl)carbonyl]-N-(1-cyanocyclopropyl)cyclohexanecarboxamide]",6.38
6,"N#CC1(NC(=O)[C@@H]2CCCC[C@H]2C(=O)N2CCc3[nH]c4ccc(C(F)(F)F)cc4c3C2)CC1 [Example 7, (1R,2R)-N-(1-cyanocyclopropyl)-2-{[8-(trifluoromethyl)-1,3,4,5-tetrahydro-2H-pyrido[4,3-b]indol-2-yl]carbonyl}cyclohexanecarboxamide]",42.1
7,"COc1ccc2[nH]c3c(c2c1)CN(C(=O)[C@@H]1CCCC[C@H]1C(=O)NC1(C#N)CC1)CC3 [Example 8, (1R,2R)-N-(1-cyanocyclopropyl)-2-[(8-methoxy-1,3,4,5-tetrahydro-2H-pyrido[4,3-b]indol-2-yl)carbonyl]cyclohexanecarboxamide]",40.7
8,"N#CC1(NC(=O)[C@@H]2CCCC[C@H]2C(=O)N2CCc3[nH]c4cccc(F)c4c3C2)CC1 [Example 9, (1R,2R)-N-(1-cyanocyclopropyl)-2-[(9-fluoro-1,3,4,5-tetrahydro-2H-pyrido[4,3-b]indol-2-yl)carbonyl]cyclohexanecarboxamide]",49.9
9,"N#CC1(NC(=O)[C@@H]2CCCC[C@H]2C(=O)N2CCc3[nH]c4cc(F)ccc4c3C2)CC1 [Example 10, (1R,2R)-N-(1-cyanocyclopropyl)-2-[(7-fluoro-1,3,4,5-tetrahydro-2H-pyrido[4,3-b]indol-2-yl)carbonyl]cyclohexanecarboxamide]",10.2
10,"CC(C)c1ccc2[nH]c3c(c2c1)CN(C(=O)[C@@H]1CCCC[C@H]1C(=O)NC1(C#N)CC1)CC3 [Example 11, (1R,2R)-N-(1-cyanocyclopropyl)-2-[(8-isopropyl-1,3,4,5-tetrahydro-2H-pyrido[4,3-b]indol-2-yl)carbonyl]cyclohexanecarboxamide]",3.67
11,"Cn1c2c(c3cc(F)ccc31)CN(C(=O)[C@@H]1CCCC[C@H]1C(=O)NC1(C#N)CC1)CC2 [Example 12, (1R,2R)-N-(1-cyanocyclopropyl)-2-[(8-fluoro-5-methyl-1,3,4,5-tetrahydro-2H-pyrido[4,3-b]indol-2-yl)carbonyl]cyclohexanecarboxamide]",2.84
12,"N#CC1(NC(=O)[C@@H]2CCCC[C@H]2C(=O)N2CCc3[nH]c4c(Br)cccc4c3C2)CC1 [Example 13, (1R,2R)-2-[(6-bromo-1,3,4,5-tetrahydro-2H-pyrido[4,3-b]indol-2-yl)carbonyl]-N-(1-cyanocyclopropyl)cyclohexanecarboxamide]",2.24
13,N#CC1(NC(=O)[C@@H]2CCCC[C@H]2C(=O)N2CCc3[nH]c4ncccc4c3C2)CC1 [Example 14],1.07
14,"CN(C)Cc1ccc2[nH]c3c(c2c1)CN(C(=O)[C@@H]1CCCC[C@H]1C(=O)NC1(C#N)CC1)CC3 [Example 15, (1R,2R)-N-(1-cyanocyclopropyl)-2-({8-[(dimethylamino)methyl]-1,3,4,5-tetrahydro-2H-pyrido[4,3-b]indol-2-yl}carbonyl)cyclohexanecarboxamide]",8.91
15,"CS(=O)(=O)c1ccc2[nH]c3c(c2c1)CN(C(=O)[C@@H]1CCCC[C@H]1C(=O)NC1(C#N)CC1)CC3 [Example 16, (1R,2R)-N-(1-cyanocyclopropyl)-2-{[8-(methylsulfonyl)-1,3,4,5-tetrahydro-2H-pyrido[4,3-b]indol-2-yl]carbonyl}cyclohexanecarboxamide]",78.5
16,"COc1cccc2c3c([nH]c12)CCN(C(=O)[C@@H]1CCCC[C@H]1C(=O)NC1(C#N)CC1)C3 [Example 17, (1R,2R)-N-(1-cyanocyclopropyl)-2-[(6-methoxy-1,3,4,5-tetrahydro-2H-pyrido[4,3-b]indol-2-yl)carbonyl]cyclohexanecarboxamide]",0.658
17,"N#CC1(NC(=O)[C@@H]2CCCC[C@H]2C(=O)N2Cc3ccccc3C3(CCNCC3)C2)CC1 [Example 18, (1R,2R)-N-(1-cyanocyclopropyl)-2-(1H-spiro[isoquinoline-4,4′-piperidin]-2(3H)-ylcarbonyl)cyclohexanecarboxamide]",7.1
18,"N#CC1(NC(=O)[C@@H]2CCCC[C@H]2C(=O)N2CCc3[nH]c4c(Cl)cccc4c3C2)CC1 [Example 19, (1R,2R)-2-[(6-chloro-1,3,4,5-tetrahydro-2H-pyrido[4,3-b]indol-2-yl)carbonyl]-N-(1-cyanocyclopropyl)cyclohexanecarboxamide]",1.78
19,"N#Cc1cccc2c3c([nH]c12)CCN(C(=O)[C@@H]1CCCC[C@H]1C(=O)NC1(C#N)CC1)C3 [Example 20, (1R,2R)-N-(1-cyanocyclopropyl)-2-[(6-cyano-1,3,4,5-tetrahydro-2H-pyrido[4,3-b]indol-2-yl)carbonyl]cyclohexanecarboxamide]",1.91
20,"Cn1c2c(c3cccnc31)CN(C(=O)[C@@H]1CCCC[C@H]1C(=O)NC1(C#N)CC1)CC2 [Example 21, (1R,2R)-N-(1-cyanocyclopropyl)-2-[(9-methyl-5,7,8,9-tetrahydro-6H-pyrrolo[2,3-b:4,5-c′]dipyridin-6-yl)carbonyl]cyclohexanecarboxamide]",1.46
21,"CSc1cccc2c3c([nH]c12)CCN(C(=O)[C@@H]1CCCC[C@H]1C(=O)NC1(C#N)CC1)C3 [Example 22, (1R,2R)-N-(1-cyanocyclopropyl)-2-{[6-(methylthio)-1,3,4,5-tetrahydro-2H-pyrido[4,3-b]indol-2-yl]carbonyl}cyclohexanecarboxamide]",4.32
22,"N#CC1(NC(=O)[C@@H]2CCCC[C@H]2C(=O)N2CCc3oc4ccccc4c3C2)CC1 [Example 23, (1R,2R)-N-(1-cyanocyclopropyl)-2-[(benzofuro[3,2-c]-1,2,3,4-tetrahydropyridyl)carbonyl]cyclohexanecarboxamide]",2.24
23,"N#CC1(NC(=O)[C@@H]2CCCC[C@H]2C(=O)N2CCc3[nH]c4c(OC(F)(F)F)cccc4c3C2)CC1 [Example 24, (1R,2R)-N-(1-cyanocyclopropyl)-2-{[6-(trifluoromethoxy)-1,3,4,5-tetrahydro-2H-pyrido[4,3-b]indol-2-yl]carbonyl}cyclohexanecarboxamide]",1.88
24,"CCOc1cccc2c3c([nH]c12)CCN(C(=O)[C@@H]1CCCC[C@H]1C(=O)NC1(C#N)CC1)C3 [Example 25, (1R,2R)-N-(1-cyanocyclopropyl)-2-[(6-ethoxy-1,3,4,5-tetrahydro-2H-pyrido[4,3-b]indol-2-yl)carbonyl]cyclohexanecarboxamide]",0.899
25,"COC(=O)Cn1c2c(c3ccccc31)CN(C(=O)[C@@H]1CCCC[C@H]1C(=O)NC1(C#N)CC1)CC2 [Example 26, (1R,2R)-N-(1-cyanocyclopropyl)-2-[(5-methoxycarbonylmethyl-1,3,4,5-tetrahydro-2H-pyrido[4,3-b]indol-2-yl)carbonyl]cyclohexanecarboxamide]",2.85
26,"N#CC1(NC(=O)[C@@H]2CCCC[C@H]2C(=O)N2CCc3c(c4ccccc4n3CC3CC3)C2)CC1 [Example 28, (1R,2R)-N-(1-cyanocyclopropyl)-2-[(5-cyclopropylmethyl-1,3,4,5-tetrahydro-2H-pyrido[4,3-b]indol-2-yl)carbonyl]cyclohexanecarboxamide]",3.45
27,"COCCn1c2c(c3ccccc31)CN(C(=O)[C@@H]1CCCC[C@H]1C(=O)NC1(C#N)CC1)CC2 [Example 29, (1R,2R)-N-(1-cyanocyclopropyl)-2-[(5-methoxyethyl-1,3,4,5-tetrahydro-2H-pyrido[4,3-b]indol-2-yl)carbonyl]cyclohexanecarboxamide]",3.89
28,"N#CC1(NC(=O)[C@@H]2CCCC[C@H]2C(=O)N2CCc3[nH]c4c(C(F)(F)F)cccc4c3C2)CC1 [Example 30, (1R,2R)-N-(1-cyanocyclopropyl)-2-{[6-(trifluoromethyl)-1,3,4,5-tetrahydro-2H-pyrido[4,3-b]indol-2-yl]carbonyl}cyclohexanecarboxamide]",5.5
29,"CS(=O)(=O)c1cccc2c3c([nH]c12)CCN(C(=O)[C@@H]1CCCC[C@H]1C(=O)NC1(C#N)CC1)C3 [Example 31, (1R,2R)-N-(1-cyanocyclopropyl)-2-{[6-(methylsulfonyl)-1,3,4,5-tetrahydro-2H-pyrido[4,3-b]indol-2-yl]carbonyl}cyclohexanecarboxamide]",17.4
